According to PubChem BioAssay AID1918954 (Molecular Pharmacology Branch, DTP, NCI, 2023):
“And” between values parts separate entries of the source, which are not always exact repeats. Equal values may be shown once.

System: MDA-MB-468 complex spheroids with HUVEC/MSC, viability
Assay: Anticancer human tumor MDA-MB-468 cell line growth inhibition;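 note: spheroids exposed to agents for seven days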;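 for viability, T/C: 100% = DMSO vehicle control viability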
Settings: for viability, T/C: stronger effect = lower value
In short: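 Multicellular complex spheroids of tumor cells with human endothelial cells (HUVEC) and mesenchymal stem cells; the LSD1 inhibitor iadademstat was combined with standard-of-care or investigational agents. Top concentration at or near clinical Cmax, half-log dilutions; final DMSO ≤0.25%.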

[1] = curve of first compound, second compound 0.1 µM
[2] = curve of first compound, second compound 0.316 µM
[3] = curve of first compound, second compound 1 µM
[4] = curve of first compound, second compound 3.16 µM
[5] = curve of first compound, second compound 10 µM
[6] = second compound 0.1 µM, first compound 0.000949 µM
[7] = second compound 0.1 µM, first compound 0.003 µM
[8] = second compound 0.1 µM, first compound 0.00949 µM
[9] = second compound 0.1 µM, first compound 0.03 µM
[10] = second compound 0.1 µM, first compound 0.0949 µM
[11] = second compound 0.1 µM, first compound 0.3 µM
[12] = second compound 0.316 µM, first compound 0.000949 µM
[13] = second compound 0.316 µM, first compound 0.003 µM
[14] = second compound 0.316 µM, first compound 0.00949 µM
[15] = second compound 0.316 µM, first compound 0.03 µM
[16] = second compound 0.316 µM, first compound 0.0949 µM
[17] = second compound 0.316 µM, first compound 0.3 µM
[18] = second compound 1 µM, first compound 0.000949 µM
[19] = second compound 1 µM, first compound 0.003 µM
[20] = second compound 1 µM, first compound 0.00949 µM
[21] = second compound 1 µM, first compound 0.03 µM
[22] = second compound 1 µM, first compound 0.0949 µM
[23] = second compound 1 µM, first compound 0.3 µM
[24] = second compound 3.16 µM, first compound 0.000949 µM
[25] = second compound 3.16 µM, first compound 0.003 µM
[26] = second compound 3.16 µM, first compound 0.00949 µM
[27] = second compound 3.16 µM, first compound 0.03 µM
[28] = second compound 3.16 µM, first compound 0.0949 µM
[29] = second compound 3.16 µM, first compound 0.3 µM
[30] = second compound 10 µM, first compound 0.000949 µM
[31] = second compound 10 µM, first compound 0.003 µM
[32] = second compound 10 µM, first compound 0.00949 µM
[33] = second compound 10 µM, first compound 0.03 µM
[34] = second compound 10 µM, first compound 0.0949 µM
[35] = second compound 10 µM, first compound 0.3 µM
[36] = second compound 0.1 µM, first compound 0.00316 µM
[37] = second compound 0.1 µM, first compound 0.01 µM
[38] = second compound 0.1 µM, first compound 0.0316 µM
[39] = second compound 0.1 µM, first compound 0.1 µM
[40] = second compound 0.316 µM, first compound 0.00316 µM
[41] = second compound 0.316 µM, first compound 0.01 µM
[42] = second compound 0.316 µM, first compound 0.0316 µM
[43] = second compound 0.316 µM, first compound 0.1 µM
[44] = second compound 1 µM, first compound 0.00316 µM
[45] = second compound 1 µM, first compound 0.01 µM
[46] = second compound 1 µM, first compound 0.0316 µM
[47] = second compound 1 µM, first compound 0.1 µM
[48] = second compound 3.16 µM, first compound 0.00316 µM
[49] = second compound 3.16 µM, first compound 0.01 µM
[50] = second compound 3.16 µM, first compound 0.0316 µM
[51] = second compound 3.16 µM, first compound 0.1 µM
[52] = second compound 10 µM, first compound 0.00316 µM
[53] = second compound 10 µM, first compound 0.01 µM
[54] = second compound 10 µM, first compound 0.0316 µM
[55] = second compound 10 µM, first compound 0.1 µM
[56] = second compound 0.1 µM, first compound 0.000316 µM
[57] = second compound 0.1 µM, first compound 0.001 µM
[58] = second compound 0.316 µM, first compound 0.000316 µM
[59] = second compound 0.316 µM, first compound 0.001 µM
[60] = second compound 1 µM, first compound 0.000316 µM
[61] = second compound 1 µM, first compound 0.001 µM
[62] = second compound 3.16 µM, first compound 0.000316 µM
[63] = second compound 3.16 µM, first compound 0.001 µM
[64] = second compound 10 µM, first compound 0.000316 µM
[65] = second compound 10 µM, first compound 0.001 µM

SMILES: Nc1ccn(C2OC(CO)C(O)C2(F)F)c(=O)n1 (configuration not stated) + NC1CC1c1ccc(-c2cccc(O)c2)cc1
- IC50 [1]: < 0.949 nM
- IC50 [2]: < 0.949 nM
- IC50 [3]: < 0.949 nM
- IC50 [4]: < 0.949 nM
- IC50 [5]: < 0.949 nM
- viability, T/C [6]: 33.8%
- viability, T/C [7]: 14.3%
- viability, T/C [8]: 4.63%
- viability, T/C [9]: 3.79%
- viability, T/C [10]: 3.9%
- viability, T/C [11]: 3.38%
- viability, T/C [12]: 34.3%
- viability, T/C [13]: 14.2%
- viability, T/C [14]: 4.2%
- viability, T/C [15]: 3.68%
- viability, T/C [16]: 3.51%
- viability, T/C [17]: 3.68%
- viability, T/C [18]: 32.4%
- viability, T/C [19]: 12.8%
- viability, T/C [20]: 4.05%
- viability, T/C [21]: 3.61%
- viability, T/C [22]: 3.27%
- viability, T/C [23]: 3.33%
- viability, T/C [24]: 28.3%
- viability, T/C [25]: 11.9%
- viability, T/C [26]: 4.05%
- viability, T/C [27]: 3.61%
- viability, T/C [28]: 3.53%
- viability, T/C [29]: 3.69%
- viability, T/C [30]: 24.4%
- viability, T/C [31]: 12.5%
- viability, T/C [32]: 4.33%
- viability, T/C [33]: 3.84%
- viability, T/C [34]: 3.5%
- viability, T/C [35]: 3.65%

SMILES: CC(C)c1c(-c2ccccc2)nc2c(C#N)c[nH]n2c1=O
- viability, T/C (compound 0.0316 µM): 111% and 87.3%
- viability, T/C (compound 0.1 µM): 101% and 89.5%
- viability, T/C (compound 0.316 µM): 91.4% and 78.7%
- viability, T/C (compound 1 µM): 101% and 96.7%
- viability, T/C (compound 3.16 µM): 92% and 101%
- viability, T/C (compound 10 µM): 72.1% and 88.9%
- IC50 (curve of compound): > 10000 nM

SMILES: O=C(C=Cn1cnc(-c2cc(C(F)(F)F)cc(C(F)(F)F)c2)n1)NNc1cnccn1 + NC1CCC(NC2CC2c2ccccc2)CC1
- IC50 [1]: < 3.16 nM
- IC50 [2]: < 3.16 nM
- IC50 [3]: < 3.16 nM
- IC50 [4]: < 3.16 nM
- IC50 [5]: < 3.16 nM
- viability, T/C [36]: 45.1%
- viability, T/C [37]: 29.7%
- viability, T/C [38]: 11.8%
- viability, T/C [39]: 3.32%
- viability, T/C (second compound 0.1 µM, first compound 0.316 µM): 2.51%
- viability, T/C (second compound 0.1 µM, first compound 1 µM): 1.85%
- viability, T/C [40]: 38.9%
- viability, T/C [41]: 26.9%
- viability, T/C [42]: 9.03%
- viability, T/C [43]: 2.83%
- viability, T/C (second compound 0.316 µM, first compound 0.316 µM): 7.44%
- viability, T/C (second compound 0.316 µM, first compound 1 µM): 2.14%
- viability, T/C [44]: 37.4%
- viability, T/C [45]: 32%
- viability, T/C [46]: 10.6%
- viability, T/C [47]: 3.06%
- viability, T/C (second compound 1 µM, first compound 0.316 µM): 2.61%
- viability, T/C (second compound 1 µM, first compound 1 µM): 6.02%
- viability, T/C [48]: 38.8%
- viability, T/C [49]: 31%
- viability, T/C [50]: 12.4%
- viability, T/C [51]: 3.59%
- viability, T/C (second compound 3.16 µM, first compound 0.316 µM): 6.05%
- viability, T/C (second compound 3.16 µM, first compound 1 µM): 5.81%
- viability, T/C [52]: 35.4%
- viability, T/C [53]: 30.1%
- viability, T/C [54]: 12.3%
- viability, T/C [55]: 4.27%
- viability, T/C (second compound 10 µM, first compound 0.316 µM): 8.47%
- viability, T/C (second compound 10 µM, first compound 1 µM): 2.53%

SMILES: CCc1c2c(nc3ccc(O)cc13)-c1cc3c(c(=O)n1C2)COC(=O)[C@]3(O)CC + NC1CCC(NC2CC2c2ccccc2)CC1
- IC50 [1]: < 0.949 nM
- IC50 [2]: < 0.949 nM
- IC50 [3]: < 0.949 nM
- IC50 [4]: < 0.949 nM
- IC50 [5]: < 0.949 nM
- viability, T/C [6]: 7.86%
- viability, T/C [7]: 7.19%
- viability, T/C [8]: 4.23%
- viability, T/C [9]: 3.08%
- viability, T/C [10]: 2.21%
- viability, T/C [11]: 2.02%
- viability, T/C [12]: 6.84%
- viability, T/C [13]: 5.38%
- viability, T/C [14]: 3.66%
- viability, T/C [15]: 3.28%
- viability, T/C [16]: 1.33%
- viability, T/C [17]: 2.06%
- viability, T/C [18]: 6.78%
- viability, T/C [19]: 6.71%
- viability, T/C [20]: 4.78%
- viability, T/C [21]: 2.79%
- viability, T/C [22]: 1.75%
- viability, T/C [23]: 2.02%
- viability, T/C [24]: 7.33%
- viability, T/C [25]: 4.42%
- viability, T/C [26]: 4.73%
- viability, T/C [27]: 3.2%
- viability, T/C [28]: 2.84%
- viability, T/C [29]: 1.88%
- viability, T/C [30]: 6.82%
- viability, T/C [31]: 5.98%
- viability, T/C [32]: 4.27%
- viability, T/C [33]: 3.39%
- viability, T/C [34]: 2.46%
- viability, T/C [35]: 2.29%

SMILES: Cn1ncnc1C1c2n[nH]c(=O)c3cc(F)cc(c23)NC1c1ccc(F)cc1 (configuration not stated) + NC1CCC(NC2CC2c2ccccc2)CC1
- IC50 [1]: 90.3 nM
- IC50 [2]: > 100 nM
- IC50 [3]: > 100 nM
- IC50 [4]: > 100 nM
- IC50 [5]: 24 nM
- viability, T/C [56]: 74.5%
- viability, T/C [57]: 81.9%
- viability, T/C [36]: 81.3%
- viability, T/C [37]: 71.8%
- viability, T/C [38]: 70.8%
- viability, T/C [39]: 47.8%
- viability, T/C [58]: 94.9%
- viability, T/C [59]: 84.6%
- viability, T/C [40]: 91.5%
- viability, T/C [41]: 76.9%
- viability, T/C [42]: 70.8%
- viability, T/C [43]: 49.5%
- viability, T/C [60]: 65.5%
- viability, T/C [61]: 85%
- viability, T/C [44]: 80.4%
- viability, T/C [45]: 65.7%
- viability, T/C [46]: 60.4%
- viability, T/C [47]: 50.3%
- viability, T/C [62]: 80.6%
- viability, T/C [63]: 86.9%
- viability, T/C [48]: 72.7%
- viability, T/C [49]: 62.7%
- viability, T/C [50]: 60.3%
- viability, T/C [51]: 54.7%
- viability, T/C [64]: 67.5%
- viability, T/C [65]: 57%
- viability, T/C [52]: 62.4%
- viability, T/C [53]: 56.4%
- viability, T/C [54]: 46.7%
- viability, T/C [55]: 40.3%

SMILES: CC(C)CC(NC(=O)C(Cc1ccccc1)NC(=O)c1cnccn1)B(O)O (configuration not stated) + NC1CCC(NC2CC2c2ccccc2)CC1
- IC50 [1]: 0.699 nM
- IC50 [2]: 0.592 nM
- IC50 [3]: 0.642 nM
- IC50 [4]: 0.646 nM
- IC50 [5]: 0.562 nM
- viability, T/C [56]: 102%
- viability, T/C [57]: 26.4%
- viability, T/C [36]: 1.52%
- viability, T/C [37]: 0.94%
- viability, T/C [38]: 1.06%
- viability, T/C [39]: 1.23%
- viability, T/C [58]: 86.6%
- viability, T/C [59]: 19.5%
- viability, T/C [40]: 0.94%
- viability, T/C [41]: 1.12%
- viability, T/C [42]: 1%
- viability, T/C [43]: 0.68%
- viability, T/C [60]: 94.1%
- viability, T/C [61]: 22.2%
- viability, T/C [44]: 0.63%
- viability, T/C [45]: 1.08%
- viability, T/C [46]: 1.55%
- viability, T/C [47]: 0.88%
- viability, T/C [62]: 91.9%
- viability, T/C [63]: 24.5%
- viability, T/C [48]: 1.11%
- viability, T/C [49]: 1%
- viability, T/C [50]: 0.77%
- viability, T/C [51]: 1.37%
- viability, T/C [64]: 83.9%
- viability, T/C [65]: 16.1%
- viability, T/C [52]: 1.08%
- viability, T/C [53]: 0.25%
- viability, T/C [54]: 1.63%
- viability, T/C [55]: 2.35%
